Source: patent US7541020B2, “Aminoalkyl glucosaminide phosphate compounds and their use as adjuvants and immunoeffectors” (priority 1997, dated 2009)
Where two headings read alike, the source gives them in different places.

What was measured:
[1] = system: E.G7 (OVA) cells; conditions: s.c. 25 μg OVA in AGP preparation, spleen cells 21 days later
[2] = system: influenza A/HK/68; format: in vivo, BALB/c mice
[3] = system: influenza A/HK/68; set-up: species or system ICR mice; conditions: mouse, in vivo
[4] = Fever response in rabbits (pyrogenicity); format: in vivo
Method: The AGP compounds were also evaluated for their tendency to induce a fever response in rabbits. Each compound was formulated in 10% (v/v) ethanol/water solution at 100 mg/ml, then diluted with D5W to the desired concentration. The material was injected at 3 ml/kg body weight into 3 rabbits. The rise in core temperature of the rabbits was recorded.

[5] = system: tetanus toxoid; conditions: mouse, in vivo, sc
[6] = system: influenza A/HK/68; format: in vivo, ICR mice
[7] = system: TNF-α; assay: Cytokine induction in human whole blood ex vivo culture: TNF-α (ELISA); format: cell-based; conditions: 4 hr
Method: (§1) AGP compounds were solubilized in 10% EtOH-water and diluted to various concentrations. Fifty μl of each dilution were added to 450 μl of whole human blood. Controls were treated with culture media (RPMI). The reaction mixture was incubated at 37° C. for 4 hr with constant mixing on a rotator. Sterile PBS (1.5 ml) was added to the reaction mixture, the cells were centrifuged and the supernatents removed for cytokine testing. The concentration of TNF-α and IL-1β in each supernatent was determined using immunoassay ELISA kits from R&D Systems.

[8] = system: IL-1β; assay: Cytokine induction in human whole blood ex vivo culture: IL-1β (ELISA); format: cell-based; conditions: 4 hr
Method: as §1

[9] = 25 μg AGP + 1 HAU FI-Flu in 0.2% TEoA, once, bled day 14, Table 11
[10] = 25 μg AGP + 1 HAU FI-Flu in 2% Squalene, SQ once, bled 14 days after vaccination

Compound	% Cytotoxicity ([1]; E:T 12.5:1)	% Cytotoxicity ([1]; E:T 25:1)	% Cytotoxicity ([1]; E:T 50:1)	Anti-tetanus toxoid IgG2a T/C [5]	Anti-tetanus toxoid IgG2a titer [5]	Anti-tetanus toxoid IgG2b T/C [5]	Anti-tetanus toxoid IgG2b titer [5]	Anti-tetanus toxoid IgM T/C [5]	Anti-tetanus toxoid IgM titer [5]	Percent Survival ([6]; mouse, in vivo)	Titer^−1 IgG1 ([6]; mouse, in vivo)	Titer^−1 IgG2a ([6]; mouse, in vivo)	Titer^−1 IgG2b ([6]; mouse, in vivo)	Titer^−1 Total IgG ([6]; mouse, in vivo)	TNF-α ([7]; Dosage 500 ng/ml, Table 17)	TNF-α ([7]; Dosage 1000 ng/ml, Table 15)	TNF-α ([7]; Dosage 1000 ng/ml, Table 17)	TNF-α ([7]; Dosage 5000 ng/ml, Table 15)	TNF-α ([7]; Dosage 5000 ng/ml, Table 17)	TNF-α ([7]; Dosage 10,000 ng/ml, Table 15)	other results
3-Hydroxy-(S)-2-[(R)-3-decanoyloxytetradecanoylamino]propyl 2-Deoxy-6-O-phosphono-2-[(R)-3-decanoyloxytetradecanoylamino]-3-O-[(R)-3-decanoyloxytetradecanoyl]-β-D-glucopyranoside Triethylammonium Salt [B6]	37%	41%	54%																		Anti-influenza Titer^−1 IgG1 ([2]; mouse, in vivo): 800; Anti-influenza Titer^−1 IgG2a ([2]; mouse, in vivo): 400; Anti-influenza Titer^−1 IgG2b ([2]; mouse, in vivo): 1600; Anti-influenza Titer^−1 Total IgG ([2]; mouse, in vivo): 800; Percent Survival ([2]; mouse, in vivo): 75%; IgG Titer-1 post 1° [3]: 1600; IgG Titer-1 post 2° [3]: 102,400; Percent Survival post 1° [3]: 80%; Percent Survival post 2° [3]: 70%
CCCCCCCCCCCCCC(=O)OC(CCCCCCCCCCC)CC(=O)NC(COC1OC(CO)C(OP(=O)(O)O)C(OC(=O)CC(CCCCCCCCCCC)OC(=O)CCCCCCCCCCCCC)C1NC(=O)CC(CCCCCCCCCCC)OC(=O)CCCCCCCCCCCCC)C(N)=O.CCN(CC)CC [B24, N-[(R)-3-Tetradecanoyloxytetradecanoyl]-O-phosphono-2-[(R)-3-tetradecanoyloxytetradecanoylamino]-3-O-[(R)-3-tetradecanoyloxytetradecanoyl]β-D-glucopyranosyl]-L-serinamide Triethylammonium Salt]																					PYROGENICITY Total Rise ° C., 3 rabbits ([4]; 10 ug/kg, cumulative rise ≥1.5 degree in three rabbits is considered pyrogenic): 2.4 °C; PY[…] ([4]; rabbits): 2.5 to 5 µg/kg
N-[(R)-3-Undecanoyloxytetradecanoyl]-O-[2-deoxy-4-O-phosphono-2-[(R)-3-undecanoyloxytetradecanoylamino]-3-O-[(R)-3-undecanoyloxytetradecanoyl]-β-D-glucopyranosyl]-L-serine Triethylammonium Salt [B13]	10%	15%	28%	220	3740	>208	>13,760	3.9	6080	50%	800	400	800	1600	411 pg/mL	740 pg/mL	478 pg/mL	716 pg/mL	592 pg/mL	775 pg/mL	TNF-α ([7]; Dosage 100 ng/ml, Table 17): 302 pg/mL; TNF-α ([7]; Dosage 10,000 ng/ml, Table 17): 583 pg/mL; IL-1β ([8]; Dosage 100 ng/ml, Table 17): 261 pg/mL; IL-1β ([8]; Dosage 500 ng/ml, Table 17): 352 pg/mL; IL-1β ([8]; Dosage 1000 ng/ml, Table 15): 177 pg/mL; IL-1β ([8]; Dosage 1000 ng/ml, Table 17): 327 pg/mL; IL-1β ([8]; Dosage 5000 ng/ml, Table 15): 187 pg/mL; IL-1β ([8]; Dosage 5000 ng/ml, Table 17): 390 pg/mL; IL-1β ([8]; Dosage 10,000 ng/ml, Table 15): THTC*; IL-1β ([8]; Dosage 10,000 ng/ml, Table 17): 282 pg/mL
N-[(R)-3-Heptanoyloxytetradecanoyl]-O-[2-deoxy-4-O-phosphono-2-[(R)-3-heptanoyloxytetradecanoylamino]-3-O-[(R)-3-heptanoyloxytetradecanoyl]-β-D-glucopyranosyl]-L-serine Triethylammonium Salt [B18]	15%	20%	36%																		Titer^−1 IgG1 [6, 9]: 800; Titer^−1 IgG2a [6, 9]: 800; Titer^−1 IgG2b [6, 9]: 400; Titer^−1 Total IgG [6, 9]: 800; Percent Survival ([6]; […], mortality 21 days, Table 11): 20%
CCCCCCCCCCC[C@H](CC(=O)N[C@H]1[C@H](OCCCN(CC(=O)O)C(=O)C[C@@H](CCCCCCCCCCC)OC(=O)CCCCCCCCC)O[C@H](CO)[C@@H](OP(=O)(O)O)[C@@H]1OC(=O)C[C@@H](CCCCCCCCCCC)OC(=O)CCCCCCCCC)OC(=O)CCCCCCCCC.CCN(CC)CC [B28]	9%	15%	28%	664.7		519.2		3.7													Anti-tetanus toxoid IgG1 T/C [5]: 92.5; Anti-tetanus toxoid IgG1 Titer [5]: 137,600; Anti-tetanus toxoid IgG2a Titer [5]: 9,970; Anti-tetanus toxoid IgG2b Titer [5]: 27,520; Anti-tetanus toxoid IgM Titer [5]: 2,080; Anti-tetanus toxoid Total Ig T/C [5]: 228.6; Anti-tetanus toxoid Total Ig Titer [5]: 54,500; Percent Survival ([2]; 25 μg AGP + 1 HAU FI-Flu in 2% Squalene, SQ once, […], mortality 21 days): 50%; Anti-influenza Titer^−1 IgG1 [2, 10]: 400; Anti-influenza Titer^−1 IgG2a [2, 10]: 400; Anti-influenza Titer^−1 IgG2b [2, 10]: 100; Anti-influenza Titer^−1 Total IgG [2, 10]: 800; TNF-α ([7]; Dosage 1000 ng/ml, Table 19): 139 pg/mL; TNF-α ([7]; Dosage 5000 ng/ml, Table 19): 197 pg/mL; TNF-α ([7]; Dosage 10,000 ng/ml, Table 19): 198 pg/mL; IL-1β ([8]; Dosage 1000 ng/ml, Table 19): 8 pg/mL; IL-1β ([8]; Dosage 5000 ng/ml, Table 19): 13 pg/mL; IL-1β ([8]; Dosage 10,000 ng/ml, Table 19): 13 pg/mL
N-[(R)-3-Nonanoyloxytetradecanoyl]-O-[2-deoxy-4-O-phosphono-2-[(R)-3-nonanoyloxytetradecanoylamino]-3-O-[(R)-3-nonanoyloxytetradecanoyl]-β-D-glucopyranosyl]-L-serine Triethylammonium Salt [B16]	20%	29%	42%	66.8	1135	104	6880	1.6	2560	40%	1600	100	800	800	55 pg/mL	155 pg/mL	72 pg/mL	277 pg/mL	114 pg/mL	291 pg/mL	TNF-α ([7]; Dosage 10,000 ng/ml, Table 17): 121 pg/mL; IL-1β ([8]; Dosage 500 ng/ml, Table 17): 17.1 pg/mL; IL-1β ([8]; Dosage 1000 ng/ml, Table 15): 39 pg/mL; IL-1β ([8]; Dosage 1000 ng/ml, Table 17): 19.5 pg/mL; IL-1β ([8]; Dosage 5000 ng/ml, Table 15): 53 pg/mL; IL-1β ([8]; Dosage 5000 ng/ml, Table 17): 34.0 pg/mL; IL-1β ([8]; Dosage 10,000 ng/ml, Table 15): 55 pg/mL; IL-1β ([8]; Dosage 10,000 ng/ml, Table 17): 41.0 pg/mL
